Measurements from PubChem BioAssay AID1033 (Sanford-Burnham Center for Chemical Genomics, 2008).
The source made the active and inactive calls. How the calls were made is not given here.

What follows are molecules tested against Chaperone protein DnaK (Escherichia coli (strain K12)) (UniProt P0A6Y8) (assay: E. coli DnaK SBD ligand binding – biophysical, NMR, chaperone (AID 1033)). Settings: Purified DnaK SBD.
Chaperone protein DnaK (Escherichia coli (strain K12)), sequence (P0A6Y8 whole entry, looked up): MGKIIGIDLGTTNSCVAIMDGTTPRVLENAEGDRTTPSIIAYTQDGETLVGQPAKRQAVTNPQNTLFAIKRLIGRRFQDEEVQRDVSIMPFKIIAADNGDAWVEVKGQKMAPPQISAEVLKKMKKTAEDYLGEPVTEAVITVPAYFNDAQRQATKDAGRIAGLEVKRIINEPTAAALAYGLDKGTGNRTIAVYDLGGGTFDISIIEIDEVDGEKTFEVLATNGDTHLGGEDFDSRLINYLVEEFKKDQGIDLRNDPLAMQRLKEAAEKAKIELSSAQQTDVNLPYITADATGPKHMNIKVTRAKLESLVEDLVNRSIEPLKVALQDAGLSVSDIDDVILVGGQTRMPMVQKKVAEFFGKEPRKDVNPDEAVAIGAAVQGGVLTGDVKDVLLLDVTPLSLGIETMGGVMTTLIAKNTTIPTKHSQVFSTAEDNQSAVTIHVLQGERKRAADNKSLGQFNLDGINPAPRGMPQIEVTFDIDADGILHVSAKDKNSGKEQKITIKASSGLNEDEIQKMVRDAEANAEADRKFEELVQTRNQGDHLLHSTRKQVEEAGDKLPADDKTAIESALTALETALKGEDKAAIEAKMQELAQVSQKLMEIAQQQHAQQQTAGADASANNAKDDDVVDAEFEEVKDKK

Structure (SMILES) | Kd
O=C(NN1CCOCC1)c1ccccc1F | > 4 mM (inactive)
O=C(Nc1nccs1)c1cccnc1 | > 4 mM (inactive)
COC(=O)[C@@H]1OC(=O)C2OC23[C@@]1(C)CCC1[C@@]2(C)CCC(=O)C(C)(C)C2C[C@@H](OC(C)=O)[C@]13C (some centres not stated) | > 4 mM (inactive)
CC(=O)N1CCc2ccccc2C1CC(=O)O (configuration not stated) | > 4 mM (inactive)
N#Cc1sc2nc3c(c(-c4cccnc4)c2c1N)CCC3 | > 4 mM (inactive)
CC(=O)OC1CCC2(C)C3CC(=O)C4(C)C(CC5OC6(CCC(C)CO6)[C@@H](C)C54)C3CC[C@H]2C1 (some centres not stated) | > 4 mM (inactive)
Nc1cc(=O)[nH]c(=S)n1CCc1ccccc1 | > 4 mM (inactive)
CCCCCCCCCCCCCCC(C(=O)OC)C(O)(CC(=O)OC)C(=O)OC (configuration not stated) | > 4 mM (inactive)
O=C(NC(=S)NN1CCOCC1)c1cccs1 | > 4 mM (inactive)
C[C@H](CCC(=O)O)[C@H]1CCC2C3C(CC[C@@]21C)[C@@]1(C)CC[C@@H](O)C[C@H]1C[C@H]3O (some centres not stated) | > 4 mM (inactive)
C=C[C@](C)(O)CCC=C(C)C | > 4 mM (inactive)
COc1ccc2cc3[n+](cc2c1OC)CCc1cc2c(cc1-3)OCO2 | > 4 mM (inactive)
COc1ccc2c3c([nH]c2c1)C(C)=NCC3 | > 4 mM (inactive)
CCn1c(-c2c[nH]c3ccccc23)n[nH]c1=S | > 4 mM (inactive)
Nc1ccc(C(=O)NCC2CCCO2)cc1 (configuration not stated) | > 4 mM (inactive)
CC1CCC2(OC1)OC1CC3C4CCC5C[C@@H](O)CCC5(C)C4=CCC3(C)C1[C@@H]2C (some centres not stated) | > 4 mM (inactive)
C=C1C2CC[C@@]3(C)[C@H](c4ccoc4)OC(=O)C[C@]13O[C@H]1C[C@H](OC(C)=O)C(C)(C)[C@H](CC(=O)OC)[C@@]21C | > 4 mM (inactive)
CN(C)S(=O)(=O)c1ccc(NC=O)cc1 | > 4 mM (inactive)
OCc1ccc(N2CCOCC2)cc1 | > 4 mM (inactive)
CN1CCN(c2ncnc3nc[nH]c23)CC1 | > 4 mM (inactive)
O=C(NC12CC3CC(CC(C3)C1)C2)c1cnccn1 | > 4 mM (inactive)
CCSc1nc2ccccc2[nH]1 | > 4 mM (inactive)
O=C1CC(=O)N(c2ccccc2)c2ccccc21 | > 4 mM (inactive)
Nc1ccc(-c2cnco2)cc1 | > 4 mM (inactive)

Structure (SMILES) | Kd
O=S1(=O)CCC(NC(=S)N2CCOCC2)C1 (configuration not stated) | > 4 mM (inactive)
CCc1ccccc1NC(=O)c1cnccn1 | > 4 mM (inactive)
NC(=O)c1ccc(-c2ccccn2)s1 | > 4 mM (inactive)
O=S(=O)(c1cccc(Cl)c1)N1CCCC1 | > 4 mM (inactive)
O=C(O)c1ccc(Oc2ccccc2)nc1 | > 4 mM (inactive)
O=C1OC(N2CCOCC2)c2ccccc21 (configuration not stated) | > 4 mM (inactive)
CC(=O)NC(=S)Nc1ccccc1C | > 4 mM (inactive)
COc1cc(C(=O)O[C@H]2CC[C@@]3(C)[C@@H]4CC[C@H]5[C@]6(O)C[C@H](O)[C@@]7(O)[C@@H](CN8C[C@@H](C)CC[C@H]8[C@@]7(C)O)[C@]6(O)C[C@@]53OC24O)cc(OC)c1OC | > 4 mM (inactive)
CN(C)c1ccc(N2C(=O)CCC2=O)cc1 | > 4 mM (inactive)
O=C1NC(=S)N/C1=C\c1ccccc1F | > 4 mM (inactive)
Cc1cc(C(=O)NC2=NCCS2)cs1 | > 4 mM (inactive)
CCCc1cc2c(c(NC(C)=O)n1)c(=O)oc1ccccc12 | > 4 mM (inactive)
O=[N+]([O-])c1cccc(-c2c[n+](=O)c3c(n2[O-])CCC3)c1 | > 4 mM (inactive)
Cc1cc(C)n2nc(SCC(=O)c3ccccc3)nc2n1 | > 4 mM (inactive)
Cc1cc(=O)n2ncn(Cc3ccccc3)c2n1 | > 4 mM (inactive)
S=C(c1ccc(N2CCOCC2)cc1)N1CCCCC1 | > 4 mM (inactive)
CCN1CCc2c(sc(N)c2C#N)C1 | > 4 mM (inactive)
OCC1=Cc2ccccc2OC1 | > 4 mM (inactive)
C=Cc1c(C)c2cc3[nH]c(cc4nc(cc5nc(cc1[nH]2)C(C)=C5CCC(=O)O)C(CCC(=O)O)=C4C)c(C)c3C=C | > 4 mM (inactive)
COc1cc2c(cc1OC)-c1nnnn1C(C)(C)C2 | > 4 mM (inactive)
Nc1ccc(S(=O)(=O)Nc2ccc(F)cc2F)cc1 | > 4 mM (inactive)
Cn1c(=O)c2cn3ncccc3c2n(C)c1=O | > 4 mM (inactive)
COCc1cc(=O)oc2cc(O)c(Cl)cc12 | > 4 mM (inactive)
O=C1C2C3C=CC(C3)C2C(=O)N1CCCO (configuration not stated) | > 4 mM (inactive)

Structure (SMILES) | Kd
COC(=O)c1cc(-c2c(C)nn(-c3ccccc3)c2C)n[nH]1 | > 4 mM (inactive)
Cn1c(SCc2ccon2)nc2ccccc2c1=O | > 4 mM (inactive)
O=C(O)c1cc(=O)[nH]c2ccccc12 | > 4 mM (inactive)
O=C(Nc1ccon1)c1cccc(C(F)(F)F)c1 | > 4 mM (inactive)
Cc1nc2ccccc2c2c1C(=O)N(N)C2=O | > 4 mM (inactive)
CNc1nc(N)c(C(=O)C(C)(C)C)s1 | > 4 mM (inactive)
Cc1ccc(-n2ncc(C#N)c2/N=C/N(C)C)cc1 | > 4 mM (inactive)
OCc1ccc(N2CCOCC2)nc1 | > 4 mM (inactive)
Cn1c(=O)c2ccccc2n(Cc2ccccc2F)c1=O | > 4 mM (inactive)
Cc1cc(=O)n2ccc(CN3CCOCC3)c(O)c2n1 | > 4 mM (inactive)
Cc1cc(C)nc(/N=C(\N)N2CCc3ccccc32)n1 | > 4 mM (inactive)
CC(=O)N1CCN(C2CCSC2)CC1 (configuration not stated) | > 4 mM (inactive)
O=C(Nc1nnc(C(F)(F)F)s1)c1cccnc1 | > 4 mM (inactive)
Cn1c(=O)n(CC(=O)N2CCOCC2)c2ccccc21 | > 4 mM (inactive)
O=C1NC(=S)N/C1=C\c1cccc([N+](=O)[O-])c1 | > 4 mM (inactive)
CSc1n[nH]c(NCc2cccs2)n1 | > 4 mM (inactive)
CC(C)c1ccc(NC(=O)C(N)=O)cc1 | > 4 mM (inactive)
CCC[C@H]1CC2=C(C[C@@H](CC)CC3=C1C(=O)OC3=O)C(=O)OC2=O | > 4 mM (inactive)
O=C(CNC(=O)c1ccc(F)cc1)NC1=NCCS1 | > 4 mM (inactive)
Nc1cccc(C(=O)Nc2ccc(N)cc2Cl)c1 | > 4 mM (inactive)
c1ccc(-c2nsc(N3CCCNCC3)n2)cc1 | > 4 mM (inactive)
O=C(Nc1ncc2ccccc2n1)c1cccs1 | < 0.2 mM
CCOC(=O)CNc1ncnc2c1nnn2CC | > 4 mM (inactive)
O=C1CCCC(=O)N1Cc1ccco1 | > 4 mM (inactive)

Structure (SMILES) | Kd
CC1(NC(=O)NCc2ccccc2)CCS(=O)(=O)C1 (configuration not stated) | > 4 mM (inactive)
Cc1cc(N)no1 | > 4 mM (inactive)
COc1cc(OC)c(-c2c(OC)cc(OC)cc2OC)c(OC)c1 | > 4 mM (inactive)
Cc1cc(C(=O)Nc2nnc(C(F)(F)F)s2)no1 | > 4 mM (inactive)
COC(=O)c1cncc(C(=O)OC)c1 | > 4 mM (inactive)
CN(C)C(=S)Nc1ccccc1N1CCOCC1 | > 4 mM (inactive)
Cc1csc(SCC(=O)N2CCCC2)n1 | > 4 mM (inactive)
COC(=O)C[C@@H]1C2(C)C(=O)[C@@H](CC3C2CC[C@]2(C)C3CC(=O)O[C@H]2c2ccoc2)[C@H](OC(C)=O)C1(C)C (some centres not stated) | > 4 mM (inactive)
COc1ccccc1C(=O)Nc1ccccn1 | > 4 mM (inactive)
COCC(=O)Nc1ccc(C)c(Cl)c1 | > 4 mM (inactive)
COc1ccc2c(c1)[nH]c1c(C)nccc12 | > 4 mM (inactive)
COc1cc2c(cc1OC)[C@@]13CCN4CC5=CCOC6CC(=O)N2C1[C@H]6[C@H]5C[C@H]43 (some centres not stated) | > 4 mM (inactive)
Cn1c(CSc2nc3ccccc3s2)n[nH]c1=S | > 4 mM (inactive)
CS/C(N)=C\C(C)=O | > 4 mM (inactive)
COc1ccc2cnn(-c3ccccc3)c(=O)c2c1OC | > 4 mM (inactive)
NC(=O)CN1CCC(c2nc3ccccc3[nH]2)CC1 | > 4 mM (inactive)
Cc1cc(C(=O)NCc2ccccc2Br)no1 | > 4 mM (inactive)
Cc1ccc(N2C(=O)CC(Sc3ncn[nH]3)C2=O)cc1 (configuration not stated) | > 4 mM (inactive)
N#CCSc1nnc2ccc3ccccc3n12 | > 4 mM (inactive)
COc1ccc(NC(=O)c2ccc[n+]([O-])c2)cc1 | > 4 mM (inactive)
OCn1nnn(-c2ccccc2)c1=S | > 4 mM (inactive)
NC1=NN(c2ccccc2)C(=O)C1 | > 4 mM (inactive)
O=C(c1ccco1)N1CCN(c2ccc(Cl)cc2)CC1 | > 4 mM (inactive)
CCOC(=O)c1c(C)cc(O)c(C)c1O | > 4 mM (inactive)

Structure (SMILES) | Kd
NCc1nc2ccccc2s1 | > 4 mM (inactive)
COc1cc2c(cc1-c1cc3cc4ccoc4cc3oc1=O)OCO2 | > 4 mM (inactive)
Nc1ccc2nccnc2c1 | > 4 mM (inactive)
Nc1ncnc2c1ncn2CCOc1ccccc1 | > 4 mM (inactive)
O=C(c1ccco1)N1CCn2c1nc1ccccc12 | > 4 mM (inactive)
CCNC(=O)CC[C@H](N)C(=O)O | > 4 mM (inactive)
Cc1nc2cc(Cl)ccc2n1CCO | > 4 mM (inactive)
Fc1ccc(-c2n[nH]c(=S)n2CC2CCCO2)cc1 (configuration not stated) | > 4 mM (inactive)
CNC(=O)C1CCCN(S(C)(=O)=O)C1 (configuration not stated) | > 4 mM (inactive)
COc1cccc(=O)c2c(C)n(C)c(C)c12 | > 4 mM (inactive)
NC(=O)Nc1cccc(C(F)(F)F)c1 | > 4 mM (inactive)
O=C(c1ccccc1F)N1CCN(c2ccccc2)CC1 | > 4 mM (inactive)
CNC(=O)c1cc2cccc(OC)c2oc1=O | > 4 mM (inactive)
COC(=O)CSc1n[nH]c(N)n1 | > 4 mM (inactive)
COc1c2c(c(CC=C(C)C)c3oc(=O)c(-c4ccc(O)cc4)c(O)c13)OC(C)(C)C=C2 | > 4 mM (inactive)
Cc1cc(-c2ccccc2)nc2cc(C(N)=O)nn12 | > 4 mM (inactive)
Nn1c(CN2CCCCC2)nc2ccccc2c1=O | > 4 mM (inactive)
CN1CCC(NC(=O)Cc2c(F)cccc2Cl)CC1 | > 4 mM (inactive)
O=C(Nc1nncs1)c1c(F)cccc1F | > 4 mM (inactive)
NC(=O)C1CCN(C(=O)Nc2ccccc2)CC1 | > 4 mM (inactive)
O=c1c(-c2cc(O)c(O)c(O)c2)coc2cc(O)c(O)c(O)c12 | > 4 mM (inactive)
